Here are results for seven compounds from US7176313B2, “Anti acid-fast bacterial agent containing pyridonecarboxylic acids as active ingredient” (Daiichi Pharmaceutical Co., Ltd., priority 2000, dated 2007).

Values after ≈ are worked out from the molar mass of the structure shown. Read-outs that look alike come from different tables or passages of the source.

The subject of one data set is M. avium. Description: Antibacterial activity (MIC) against M. avium. Format: cell-based, Mycobacterium avium. As to conditions: Mycobacterium avium, Table 4 (series 2), read-out: MIC. As for the experimental part: Antibacterial activity of the compounds of the invention was measured in accordance with the method described in the literature of Antimicrob. […] In the tables, “OFLX” is an abbreviation of “OFLOXAIN”.

In a further data set the test system is M. intracellulare. Description: Antibacterial activity (MIC) against M. intracellulare. As to conditions: Mycobacterium intracellulare, Table 4 (series 2), read-out: MIC. Format: cell-based, Mycobacterium intracellulare. On the procedure: Antibacterial activity of the compounds of the invention was measured in accordance with the method described in the literature of Antimicrob. Agents and Chemother., 38, 2877 (1994), and the results are shown in Tables 3 to 8 in terms of MIC (μg/ml). In the tables, “OFLX” is an abbreviation of “OFLOXAIN”.

Data set [1] has as its system Mycobacterium tuberculosis (RFP sensitive). The data set can be described thus: Antibacterial activity (MIC) against Mycobacterium tuberculosis (RFP sensitive). Format: cell-based. As to conditions: Mycobacterium tuberculosis, Table 6 (series 2), read-out: MIC.
Data set [2] can be described thus: Mouse acute toxicity test. Format: in vivo, Male Slc:ddY mice. As to conditions: intravenous. On the procedure:
Mouse Acute Toxicity Test
Male Slc:ddY mice at age of 5-weeks were used as test animals. For dissolving the compounds, 0.1 mol/l NaOH (in saline) was used. Mice were administered intravenously at a rate of 0.1 ml/30 seconds at a dosing volume of 10 ml/kg.

In a further data set the test system is reticulocytes (RC). The data set can be described thus: Peripheral blood micronucleus test. Format: in vivo, Male Slc:ddY mice. As to conditions: mice, intravenous. As for the experimental part:
Peripheral Blood Micronucleus Test
Used animals and administration method are similar to those in the mouse acute toxicity test. Samples were prepared by collecting 5 μl each of blood sample from the tail vein at 24 and 48 hours after the administration, dropping the blood on a slide at which 0.1% acridine orange solution had been applied in advance, sealing the slide with a cover glass immediately, and allowing it to stand in a refrigerator for 24 hours.

For orientation: MIC means the lowest concentration found to suppress growth. As to `COc1c(N2C[C@@H](C)N[C@@H](C)C2)c(F)cc2c(=O)c(C(=O)O)cn([C@@H]3C[C@@H]3F)c12` [Compd. 16, 7-(3,5-cis-Dimethylpiperazin-1-yl)-6-fluoro-1-[2-(S)-fluoro-1-(R)-cyclopropyl]-1,4-dihydro-8-methoxy-4-oxoquinoline-3-carboxylic acid], the MIC with M. avium (M. avium N-357) came out at 0.5 mg/L (≈ 1.23 µM); in the data set on M. avium (M. avium N-444), 1 mg/L (≈ 2.45 µM); with M. avium (M. avium N-458), 0.5 mg/L (≈ 1.23 µM); in the data set on M. avium (M. avium N-472), 4 mg/L (≈ 9.82 µM); with M. intracellulare (M. intracellulare N-294), 1 mg/L (≈ 2.45 µM); in the data set with M. intracellulare (M. intracellulare N-313), 0.12 mg/L (≈ 0.295 µM). The MIC with M. intracellulare (M. intracellulare N-338) turned out to be 0.5 mg/L (≈ 1.23 µM); in the data set with M. intracellulare (M. intracellulare N-345), 0.5 mg/L (≈ 1.23 µM); in data set [1] (H37RV, M. tuberculosis H37Rv), 0.12 mg/L (≈ 0.295 µM); in data set [1] (M. tuberculosis Kurono) it was 0.12 mg/L (≈ 0.295 µM); in data set [1] (M. tuberculosis No. 40), 0.12 mg/L (≈ 0.295 µM); in data set [1] (M. tuberculosis No. 41), 0.03 mg/L (≈ 0.0736 µM). The MIC in data set [1] (M. tuberculosis No. 43) was 1 mg/L (≈ 2.45 µM); in data set [1] (M. tuberculosis No. 68) it was 0.12 mg/L (≈ 0.295 µM). In addition, the “survival of mice after administration” value in data set [2] (text summary of Table 9) is on record as “all mice were survived”. In addition, the “Mortality (dead/ test)” value in data set [2] (mice, 150 mg/kg) is 0/5. For the same compound, the acute toxicity entry in data set [2] (mice, text summary of Table 9) is “relatively weak”. Besides, the “MNRC (%) mean ±S.E. 24 hours” value with reticulocytes (RC) (150 mg/kg, 24 hours after administration) is given as 0.05 ± 0.03%. Further, in the data set on reticulocytes (RC) (150 mg/kg, 48 hours after administration), the “MNRC (%) mean ±S.E. 48 hours” value is 0.12 ± 0.02%. Moreover, in the data set on reticulocytes (RC) ((untreated control: 0.12±0.08)), the micronucleus induction entry was “weak”.

Broadly, the melting point is the temperature, or range, at which the solid turns liquid. `COc1c(N2CCNC(CF)C2)c(F)cc2c(=O)c(C(=O)O)cn([C@@H]3C[C@@H]3F)c12` (stereo partly drawn) [Compd. 19, 6-Fluoro-1-[(1R,2S)-2-fluorocyclopropyl]-7-(3-fluoromethylpiperazin-1-yl)-1,4-dihydro-8-methoxy-4-oxoquinoline-3-carboxylic acid] returned a melting point of 153 to 156 °C.

As for `COCC1CN(c2c(F)cc3c(=O)c(C(=O)O)cn([C@@H]4C[C@@H]4F)c3c2OC)CCN1` (stereo partly drawn) [Compd. 21, 6-Fluoro-1-[(1R,2S)-2-fluorocyclopropyl]-1,4-dihydro-8-methoxy-7-(3-methoxymethylpiperazin-1-yl)-4-oxoquinoline-3-carboxylic acid], the melting point was in the range of 92 to 95 °C.

For the compound `COc1c(N2CCNC3(CC3)C2)c(F)cc2c(=O)c(C(=O)O)cn([C@@H]3C[C@@H]3F)c12` [Compd. 22, 7-{4,7-Diazaspiro[2.5]octan-7-yl}-6-fluoro-1-[(1R,2S)-2-fluorocyclopropyl]-1,4-dihydro-8-methoxy-4-oxoquinoline-3-carboxylic acid], the melting point is 164 to 167 °C (dec.).

Take `COc1c(C2CNC3(CCC3)CN2)c(F)cc2c(=O)c(C(=O)O)cn([C@@H]3C[C@@H]3F)c12` (stereo partly drawn) [Compd. 23, 7-{5,8-Diazaspiro[3.5]nonan-7-yl}-6-fluoro-1-[(1R,2S)-2-fluorocyclopropyl]-1,4-dihydro-8-methoxy-4-oxoquinoline-3-carboxylic acid]: the melting point was 138 to 140 °C (dec.).

On to `COc1c(N2CCNC(C3CC3)C2)c(F)cc2c(=O)c(C(=O)O)cn([C@@H]3C[C@@H]3F)c12` (stereo partly drawn) [Compd. 24, 7-(3-Cyclopropylpiperazin-1-yl)-6-fluoro-1-[(1R,2S)-2-fluorocyclopropyl]-1,4-dihydro-8-methoxy-4-oxoquinoline-3-carboxylic acid], for which the melting point was in the range of 136 to 139 °C.

In the case of `COc1c(N2CCN3CCC2C3)c(F)cc2c(=O)c(C(=O)O)cn([C@@H]3C[C@@H]3F)c12` (stereo partly drawn) [Compd. 28, 7-{1,4-Diazabicyclo[3.2.1]octan-4-yl}-6-fluoro-1-[(1R,2S)-2-fluorocyclopropyl]-1,4-dihydro-8-methoxy-4-oxoquinoline-3-carboxylic acid], the melting point is 195 to 198 °C (dec.).
